Experimental data taken from US7829063B2, “Development of molecular imaging probes for carbonic anhydrase-IX using click chemistry” (Siemens Medical Solutions USA, Inc., priority 2007, dated 2010).

Columns and labels:
CA-IX [1] = molecular target: T1, CA-IX (Homo sapiens, UniProt Q16790); test: Binding affinity (Kd) determination for CA-IX inhibitors, DNSA fluorescence competition assay, Scatchard plots; settings: Table 3
T1 construct: His tag (C); purchased R&D Systems Inc. 2188-CA; host or cells: mouse myeloma cell line NS0
Protocol: General. […] The human red blood cells were obtained from Research Blood Components, LLC. All absorbance measurements were performed on a SPECTRA MAX M2 plate reader at 25° C. The LC/MS analyses were performed on an Agilent 1100 series LC/MSD (SL) using a 30×2.1 mm Zorbax C8 column with a Phenomenex C18 pre-column. Compound detection was accomplished by electrospray mass spectroscopy in positive selected ion mode (LC/MS-SIM). The elution solvents were acetonitrile and water, contained 0.05% TFA. Nuclear magnetic resonance (NMR) spectra were obtained on a Bruker AMX 300 MHz spectrometer or a Varian 400. 19F NMR spectra were recorded on a Bruker AMX 282.35 MHz or a Varian 400 spectrometer. The mass spectra were recorded on an Agilent 1100 series LC/MSD with electrospray mass spectroscopic detection. Flash column chromatography was performed on Merck silica gel (40-63 μm) using the solvent system indicated. The radiochemical and chemical purities were analyzed by RP-HPLC.
General Procedure of Binding Affinity (Ka) Determination for CA-IX Inhibitors
The assay was based on the observation that the only fluorescence signal detected at 460 nm upon excitation at 290 nm, an absorption […] for DNSA, was that of the DNSA.CA complex. […] The latter were developed for each test compound using mass balance for calculating the concentration of CA bound to DNSA [DNSA.CA], bound to the non-fluorescent sample [CA.Inh] and free CA [CA] in solution. The Kd values were determined from Scatchard plots using the equation below as described by Whitesides et al. [CA.Inh]/[CA]tot.[Inh]=K11^inh−K11^inh{[CA.Inh]+[CA.DNSA]}/([CA]tot)
The terms [CA.DNSA], [CA.Inh], and free CA were calculated using the mass balance based on the known values for the dissociation constant of CA.DNSA and the total concentration of CA in each reaction.

CA-IX [2] = molecular target: T1, CA-IX; test: CA-IX combinatorial library screening, competitive fluorescence-based assay with dansylamide (DNSA); format: binding; settings: Table 1, Libraries 1-3; sample concentrations 100 nM and 1000 nM, DNSA 200 μM; screening at 1 μM
Outline: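 Recombinant His-tagged CA-IX (NS0-expressed) in phosphate buffer pH 7.4 with test compound at 100 nM or 1000 nM; competitive displacement started with 200 μM dansylamide (stock concentration). After 1 h at 25 °C, fluorescence read at 460 nm (excitation 290 nm).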

Row | Structure (SMILES) | Kd (CA-IX [1]) [nM] | In Vitro Binding Assay (Library Screening) (CA-IX [2])
1 | COC(=O)[C@H](CSCc1ccccc1)NC(=O)Cn1cc(COc2ccc3nc(S(N)(=O)=O)sc3c2)nn1 [DHK113] | 10 | √ √
2 | Cc1ccc(CNC(=O)[C@H](C(C)C)n2cc(COc3ccc4nc(S(N)(=O)=O)sc4c3)nn2)cc1F [DHK123] | 12.5 | √
3 | NS(=O)(=O)c1nc2ccc(OCc3cn(Cn4nnc5ccccc54)nn3)cc2s1 [DHK128] | 12.5 | √

More lines, now with the values ahead:

Row | Kd (CA-IX [1]) [nM] | In Vitro Binding Assay (Library Screening) (CA-IX [2]) | Structure (SMILES)
4 | 14 | √ | NS(=O)(=O)c1ccc(-c2cn(Cn3c(=S)sc4ccccc43)nn2)cc1 [DHK19]
5 | 5 | √ √ | CC(C)[C@H](C(=O)NCc1ccco1)n1cc(-c2ccc(S(N)(=O)=O)cc2)nn1 (stereo in doubt) [DHK25]
